Assay results: patent publication US20210403415A1, “COMPOUNDS AND METHODS TO ATTENUATE TUMOR PROGRESSION AND METASTASIS” (THE TRUSTEES OF INDIANA UNIVERSITY, priority 2018, published 2021)

Tests used:
TEAD2 binding to Yap1 = molecular target: T1, TEAD2 binding to Yap1 (Homo sapiens, UniProt Q15562); test: Fluorescence polarization, HIS-TEAD2 with FAM-Yap60-99 peptide; conditions: 24 h at 4° C.
T1 construct: TEAD2 (217-447) was expressed as N-terminal HIS-fusion protein; made in house; host or cells: E. coli BL-21 (DE3), pET-28a
T1 sequence (Q15562 217-447): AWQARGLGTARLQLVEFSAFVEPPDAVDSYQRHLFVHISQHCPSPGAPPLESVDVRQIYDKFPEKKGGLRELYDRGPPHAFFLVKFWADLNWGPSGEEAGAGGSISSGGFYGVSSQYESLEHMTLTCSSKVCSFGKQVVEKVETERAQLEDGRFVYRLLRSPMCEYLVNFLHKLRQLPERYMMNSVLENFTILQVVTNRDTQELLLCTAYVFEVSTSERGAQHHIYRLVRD
Procedure: (§1) GST-TEAD4, GST-TEAD4 Cys367Ser mutant or HIS-TEAD2 interaction with Yap1 was investigated using a fluorescently-labeled peptide (FAM-Yap60-99), consisting of FAM-labeled TEAD-binding peptide fragment of Yap1 (FAM-[…] TVPMCLRKLPASFCKPP), which has a disulfide bridge (American Peptide, Sunnyvale, Calif.). Addition of FAM-Yap60-99 to the TEAD was followed by measurement of changes in polarization. 40 μL of 125 nM GST-TEAD4 WT or GST-TEAD4 Cys367Ser in assay buffer (PBS with 0.01% v/v Triton-X100) or 40 μL of 64 nM HIS-TEAD2 was added to a 384-well black polystyrene plate (Cat. No. 262260; Nunc, Roskilde, Denmark) and incubated with 5 μL of […] serially diluted compounds in assay buffer supplemented with 20% v/v DMSO for 24 h at 4° C. Finally, 5 μL of 160 nM FAM-Yap60-99 peptide was added, the plate centrifuged, and the polarization was measured on an Envision Multilabel Plate Reader (PerkinElmer, Waltham, Mass.) using a filter set with excitation and emission wavelengths of 485 and 535 nm, respectively. Percent inhibition was calculated as relative to a minimum inhibition control, which is without compound, and a maximum inhibition control, which is without a TEAD.

[1] = test system: patient-derived GBM43 glioblastoma spheroids; test: GBM43 spheroid viability (Alamar blue); type: cell-based, human; conditions: three-dimensional spheroids
Procedure: Early-passage GBM43 cells were cultured in ultralow adherence plates (Corning Inc.) at 1 to 2×10^3 cells/mL in DMEM supplemented with 1% […] (Invitrogen), 2% B27 (Invitrogen), 25 ng/mL epidermal growth factor (EGF, 25 ng/mL fibroblast growth factor (FGF) (R&D Systems, Inc.), […], 2 ng/mL platelet growth factor, and 100 ng/mL each of penicillin and streptomycin (Invitrogen Inc.). Individual cells were recovered from spheres by incubation with Accutase (Sigma-Aldrich) for 10-15 minutes. Cells (50-100/well) were then seeded in fresh sphere-forming media in 96-well plates. After 2-3 days, Neurospheres containing 6 to 8 cells were treated with compounds 1, 2, and 5.
HEK-293 were cultured in DMEM with glutamine (Cellgro, Manassas, Va.) supplemented with 10% FBS and 1% penicillin/streptomycin in a 5% CO2 atmosphere at 37° C. Tumors were expanded by passage in the flank of NOD/SCIDγnull mice. To generate GBM43 cell lines, tumors were harvested, disaggregated, and maintained in 2.5% FBS for 14 days on Matrigel-coated plates (BD Biosciences) to remove murine fibroblasts. In-vitro GBM43 cell lines were propagated in DMEM with 10% FBS for no more than 7 passages. Cell line identity was confirmed by DNA fingerprint analysis (IDEXX BioResearch) for species and baseline short-tandem repeat analysis testing. GBM43 spheroids were generated by plating early-passage cells at 2.5×10^4 cells per well in 96-well ultralow attachment plates (Corning Inc.) in DMEM/F12 (1:1; GIBCO) supplemented with 2% B27 supplement (GIBCO), 20 ng/mL epidermal growth factor (EGF), and 20 ng/mL fibroblast growth factor (FGF) (Peprotech) for 2 days. The spheroids were then treated with compounds 1, 2, and 5 and growth analyzed by Alamar blue staining.

CTGF transcript levels = test: qRT-PCR of CTGF transcript in GBM43 cells; type: cell-based, human; conditions: FIG. 8C
TEAD2 = TEAD2 (Homo sapiens, UniProt Q15562); conditions: cited from earlier work
Sequence of TEAD2 (Q15562 whole entry, the tested form may be a part): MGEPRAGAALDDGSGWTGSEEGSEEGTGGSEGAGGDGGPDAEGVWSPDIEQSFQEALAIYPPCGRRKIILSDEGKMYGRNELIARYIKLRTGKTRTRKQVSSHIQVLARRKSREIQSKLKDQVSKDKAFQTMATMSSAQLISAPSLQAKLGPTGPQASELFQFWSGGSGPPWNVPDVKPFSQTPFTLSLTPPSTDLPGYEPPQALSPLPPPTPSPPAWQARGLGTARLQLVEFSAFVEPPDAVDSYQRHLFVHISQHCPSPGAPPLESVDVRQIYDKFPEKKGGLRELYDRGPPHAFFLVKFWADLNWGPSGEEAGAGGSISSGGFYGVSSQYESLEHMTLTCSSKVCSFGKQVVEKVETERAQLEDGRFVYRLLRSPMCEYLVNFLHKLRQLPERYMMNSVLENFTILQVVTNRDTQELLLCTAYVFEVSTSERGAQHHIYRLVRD

TEAD4.Yap1 interaction = TEAD4.Yap1 interaction (Homo sapiens, UniProt Q15561); test: Fluorescence polarization, GST-TEAD4 with FAM-Yap60-99 peptide; type: binding; parameters: TEAD4 (217-434), TEAD4 (217-434) Cys367Ser mutant and Yap1 (Full-length) were expressed as GST-fusion proteins; made in house; host or cells: E. coli BL-21 (DE3), pGEX-6P-1; conditions: FP assay, 24 h at 4° C.
Sequence of TEAD4.Yap1 interaction (Q15561 217-434): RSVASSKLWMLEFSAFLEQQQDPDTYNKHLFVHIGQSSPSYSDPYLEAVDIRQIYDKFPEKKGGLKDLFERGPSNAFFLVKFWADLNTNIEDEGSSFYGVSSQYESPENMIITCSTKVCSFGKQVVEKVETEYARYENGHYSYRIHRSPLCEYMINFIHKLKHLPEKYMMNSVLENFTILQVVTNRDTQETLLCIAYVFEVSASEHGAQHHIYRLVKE
Procedure: as §1
For the determination of the inhibition efficiency kinact/K1, the protein compound incubation time was varied between […], prior to the addition of the FAM-Yap60-99 peptide and fluorescence polarization measurements. The progressive decrease in TEAD activities were plotted against time for all 10 concentrations ([…]) of the compounds and the observed rate of inhibition (kobs) was calculated by fitting a simple exponential function.
The observed rate of inhibition was then plotted against the concentration of the compound and a […] function kobs=kinact[Inhibitor]/K1+[Inhibitor] was fitted to determine the kinact and K1 values.

[2] = molecular target: uPAR.uPA protein-protein interaction (Homo sapiens, UniProt Q03405); test: Fluorescence polarization, urokinase receptor with peptide AE147; type: binding; conditions: 24 h at 4° C.
Sequence of uPAR.uPA protein-protein interaction (Q03405 23-305 limits assumed): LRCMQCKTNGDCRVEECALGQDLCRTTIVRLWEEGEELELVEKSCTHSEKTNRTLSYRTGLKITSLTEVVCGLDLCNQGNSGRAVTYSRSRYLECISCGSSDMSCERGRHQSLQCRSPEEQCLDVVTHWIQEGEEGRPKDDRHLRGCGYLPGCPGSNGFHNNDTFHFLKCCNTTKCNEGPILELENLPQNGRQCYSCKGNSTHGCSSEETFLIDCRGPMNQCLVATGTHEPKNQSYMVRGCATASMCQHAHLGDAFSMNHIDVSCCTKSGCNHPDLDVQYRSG
Text: (§2) The selectivity of the compounds was explored with two unrelated protein-protein interactions between (i) the urokinase receptor (uPAR) and its ligand urokinase (uPA); and (ii) the a subunit of the voltage-gated calcium channel Cav2.2 with its β subunit Cavβ3. […] Both proteins have cysteine residues capable of forming covalent adducts.
(§3) FIG. 4D illustrates BLI measurements of the binding of TEAD4 to captured Yap when biotin-labeled GST-Yap1 was captured onto streptavidin-conjugated biolayer interferometry sensors which were dipped into varying concentrations of TEAD4. (mean±s.d.; n=3). […] FIG. 4F illustrates measured fluorescence polarization when increasing concentration of HIS-TEAD2 was mixed with 16 nM FAM-Yap60-99 peptide (mean±s.d.; n=3). FIG. 4G illustrates measured fluorescence polarization when HIS-TEAD2 was incubated with increasing concentration of compounds for 24 h at 4° C. followed by addition of FAM-Yap60-99 (mean±s.d.; n=3). FIG. 4H illustrates measured fluorescence polarization when urokinase receptor (uPAR) was incubated with varying concentrations of compounds for 24 h at 4° C. followed by addition of a urokinase-derived fluorescently-labeled peptide AE147 (mean±s.d.; n=3). […]

[3] = molecular target: Cav2.2 α·β protein-protein interaction (Homo sapiens, UniProt P54284); test: Fluorescence polarization, Cavβ3 with labeled α-subunit peptide; type: binding; conditions: 24 h at 4° C.
Sequence of Cav2.2 α·β protein-protein interaction (P54284 whole entry): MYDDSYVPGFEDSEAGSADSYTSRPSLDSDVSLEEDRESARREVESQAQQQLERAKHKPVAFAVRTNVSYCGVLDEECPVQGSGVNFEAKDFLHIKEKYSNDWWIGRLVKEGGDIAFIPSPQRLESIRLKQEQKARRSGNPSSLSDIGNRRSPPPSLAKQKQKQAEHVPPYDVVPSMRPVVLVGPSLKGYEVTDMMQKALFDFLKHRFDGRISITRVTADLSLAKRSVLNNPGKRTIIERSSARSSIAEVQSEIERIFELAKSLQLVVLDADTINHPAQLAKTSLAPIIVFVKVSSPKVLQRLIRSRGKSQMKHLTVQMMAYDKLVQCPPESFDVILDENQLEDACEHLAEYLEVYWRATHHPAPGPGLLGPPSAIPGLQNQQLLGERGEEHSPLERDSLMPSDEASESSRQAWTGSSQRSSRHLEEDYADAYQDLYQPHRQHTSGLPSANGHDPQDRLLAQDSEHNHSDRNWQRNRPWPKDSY
Text: as §2, §3

TEAD4 = TEAD4 (Homo sapiens, UniProt Q15561); test: Whole protein ESI mass spectrometry, adduct formation; type: binding; parameters: TEAD4 (217-434), TEAD4 (217-434) Cys367Ser mutant and Yap1 (Full-length) were expressed as GST-fusion proteins; GST (N, cleaved yes); made in house; host or cells: E. coli BL-21 (DE3), pGEX-6P-1; conditions: 10 μM TEAD4, 200 μM compound, 24 h at 4° C.
Sequence of TEAD4 (Q15561 217-434): as the sequence (Q15561 217-434) above
Procedure: The samples were centrifuged at 20,000×g for […] to remove precipitants before being injected into an empty column on an Agilent 1200 liquid chromatography system (Agilent, Santa Clara, Calif.), using 80% Buffer A (H2O, 5 mM NH4OAc) and 20% Buffer B (ACN, 5 mM NH4OAc), and the masses were detected on an Agilent 6520 Accurate Mass Q-TOF.
It was determined whether a covalent bond formed between inventive compounds and TEAD4. […] The covalent adduct formation by compound 2 was relatively fast (FIG. 3G), reaching nearly 100% adduct formation after 30 min incubation with TEAD4. Because the rate of inhibition developed over a longer timescale (FIG. 3C), compound 2 is proposed to induce a slow conformational change in TEAD4 that prevents its interaction with Yap1. To rule out the possibility that compound 2 induces slow aggregation of TEAD4, and not the proposed slow conformational change, GST-TEAD4 was incubated with DMSO compound 2 for 24 h at 4° C., followed by injection into an SEC column (FIG. 3H). […] A slight increase in dimer formation for the TEAD4 sample incubated with compound 2 occurred compared to the sample incubated with DMSO. […] Furthermore, it is highly unlikely that Cys-367 oxidation was responsible for the lack of 100% inhibition at longer times since it has been shown that covalent bond formation is rapid and complete within less than an hour.

| inhibition of TEAD2 binding to Yap1 (TEAD2 binding to Yap1) | inhibition of TEAD4.Yap1 interaction (TEAD4.Yap1 interaction) | inhibition of uPAR.uPA interaction [2] | inhibition of Cav2.2 α·β interaction [3] | covalent adduct formation with TEAD4 (TEAD4) | Compound | effect on GBM43 cancer cell viability / growth [1] | CTGF transcript levels versus vehicle (CTGF transcript levels) | inhibition of TEAD binding to Yap (TEAD2) | binding to TEAD2 (TEAD2; two sites on TEAD2) |
| --- | --- | --- | --- | --- | --- | --- | --- | --- | --- |
| inactive | did not inhibit |  |  |  | O=C(O)c1ccccc1Nc1cccc(C(F)(F)F)c1 [Compound 1, 2-((3-(trifluoromethyl)phenyl)amino)benzoic acid, reference compound] | did not affect | no effect | did not inhibit | binds weakly |
| inactive | did not inhibit | no inhibition | no inhibition | no adduct formation | CCC(=O)c1ccccc1Nc1cccc(C(F)(F)F)c1 [Compound 3, 1-(2-((3-(trifluoromethyl)phenyl)amino)phenyl)propan-1-one] |  |  |  |  |
